# Measured values: patent US9284283B2, “Macrocyclic compounds for modulating IL-17” (ENSEMBLE THERAPEUTICS CORPORATION, priority 2012, dated 2016)
# Target: T1, recombinant human IL17a (binding to its receptor IL17R) (Homo sapiens, UniProt Q16552)
# T1 construct: purchased R&D Systems 317-ILB (IL17a); 177-IR (IL17R/Fc)
# T1 sequence (Q16552 20-155 limits assumed): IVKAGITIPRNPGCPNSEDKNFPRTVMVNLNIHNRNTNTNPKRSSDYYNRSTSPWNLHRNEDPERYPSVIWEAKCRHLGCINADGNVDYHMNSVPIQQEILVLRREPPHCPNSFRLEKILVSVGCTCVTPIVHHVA
# Experiment: IL-17 competition ELISA I (IL17a coated, IL17R/Fc binding)
# Method: ELISA I: The ability of the compounds to block binding of IL17a to its receptor, IL17R, was analyzed in a competition ELISA format. High binding 96-well plates (Costar #9018) were coated with 20 nM of recombinant human IL17a (R&D Systems #317-ILB) in PBS (0.64 μg/mL), 100 μL/well, for 30 min at 37′C followed by 5 min at 4′C. Plates were then washed in PBST (PBS/0.05% Tween-20) on a plate washer, (Biotech EL-450) blocked with protein-free blocking buffer (Thermo Scientific #37573) in 250 μL/well for 30 min on shaker at room temperature, and then washed again. Compound dilutions prepared in PBST were added into the wells in duplicates followed by the addition of IL17R/Fc (R&D Systems #177-IR) at a final concentration of 12 nM. Plates were then incubated for 30 min at room temperature on the shaker. Wells with no compound served as a positive “no competitor” control, while wells with no IL17R/Fc and no compound served as a blank negative control. After an additional PBST wash, 50 ng/mL HRP-conjugated goat anti-human Fc IgG (KPL #04-10-20) was added to the plate for 30 min at room temperature, followed by PBST wash and addition of SureBlue™ TMB (KPL #52-00-03). After the sufficient color development, the reaction was fixed by the addition of 100 μL/well 0.5 N HCl and absorbance was measured at 450 nm on Biotek plate reader.
# Data were processed using BioAssay Enterprise v10.1.4 (CambridgeSoft) software. Linear OD λ450 were plotted against log concentration (x) and fitted to a 4-parameter logistic equation. IC50 was calculated using positive ‘no competitor’ control data as an upper limit and blank control as a lower limit in each assay.
row,SMILES,IC50
1,O=C1CNC(=O)[C@@H](Cc2ccc(NC(=O)[C@H](Cc3ccccc3Cl)NC(=O)c3ccc(F)cc3O)cc2)NC(=O)CC2(CCCC2)CC(=O)NCCCCCN1 [Compound 278],1000 to 10000 nM
2,O=C1CNC(=O)[C@@H](Cc2ccc(NC(=O)[C@H](Cc3ccccc3Cl)NC(=O)Cc3ccc(O)cc3)cc2)NC(=O)CC2(CCCC2)CC(=O)NCCCCCN1 [Compound 279],< 100 nM
3,CN1CCCCCNC(=O)CC2(CCCC2)CC(=O)N[C@H](Cc2ccc(NC(=O)[C@H](Cc3ccccc3Cl)NC(=O)Cc3ccccc3)cc2)C(=O)NCC1=O [Compound 281],< 100 nM
4,COC(=O)[C@@H]1CCCCNC(=O)CNC(=O)[C@@H](Cc2ccc(NC(=O)[C@@H](NC(=O)Cc3ccccc3)C3CCCCC3)cc2)NC(=O)CC2(CCCC2)CC(=O)N1 [Compound 282],< 100 nM
5,C=CCOC(=O)N1CCNC(=O)CNC(=O)[C@@H](Cc2ccc(NC(=O)[C@H](Cc3ccccc3Cl)NC(=O)Cc3ccccc3)cc2)NC(=O)CC2(CCCC2)CC(=O)NCC1 [Compound 284],100 to 1000 nM
6,COC(=O)[C@@H]1CCCCNC(=O)CC2(CCCC2)CC(=O)N[C@H](Cc2ccc(NC(=O)[C@H](Cc3ccccc3Cl)NC(=O)Cc3ccccc3)cc2)C(=O)NCC(=O)N1 [Compound 285],< 100 nM
7,O=C1CCCCCNC(=O)CNC(=O)[C@@H](Cc2ccc(NC(=O)[C@H](Cc3ccccc3Cl)NC(=O)Cc3ccccc3)cc2)NC(=O)CC2(CCCCC2)CN1 [Compound 286],100 to 1000 nM
8,C[C@@H]1C(=O)NCCCCCNC(=O)CC2(CCCC2)CC(=O)N[C@H](Cc2ccc(NC(=O)[C@H](Cc3ccccc3Cl)NC(=O)Cc3ccccc3)cc2)C(=O)N1C [Compound 289],1000 to 10000 nM
9,C[C@@H]1NC(=O)[C@@H](Cc2ccc(NC(=O)[C@H](Cc3ccccc3Cl)NC(=O)Cc3ccccc3)cc2)NC(=O)CC2(CCCC2)CC(=O)NCCCCCNC1=O [Compound 290],100 to 1000 nM
10,C[C@H]1C(=O)NCCCCCNC(=O)CC2(CCCC2)CC(=O)N[C@H](Cc2ccc(NC(=O)[C@H](Cc3ccccc3Cl)NC(=O)Cc3ccccc3)cc2)C(=O)N1C [Compound 291],1000 to 10000 nM
11,O=C1CNC(=O)[C@@H](Cc2ccc(NC(=O)[C@H](CC3CCCCC3)NC(=O)Cc3ccc(O)cc3)cc2)NC(=O)CC2(CCCC2)CC(=O)NCCCCCN1 [Compound 294],< 100 nM
12,O=C1CNC(=O)[C@@H](Cc2ccc(NC(=O)[C@H](Cc3ccccc3Cl)NC(=O)Cc3ccc(F)cc3F)cc2)NC(=O)CC2(CCCC2)CC(=O)NCCCCCN1 [Compound 296],< 100 nM
13,O=C1CNC(=O)[C@@H](Cc2ccc(NC(=O)[C@H](Cc3ccccc3Cl)NC(=O)c3ccc(F)c(F)c3)cc2)NC(=O)CC2(CCCC2)CC(=O)NCCCCCN1 [Compound 297],< 100 nM
14,O=C1CNC(=O)[C@@H](Cc2ccc(NC(=O)[C@H](Cc3ccccc3Cl)NC(=O)Cc3ccc(F)c(F)c3)cc2)NC(=O)CC2(CCCC2)CC(=O)NCCCCCN1 [Compound 298],< 100 nM
15,O=C1CNC(=O)[C@@H](Cc2ccc(NC(=O)[C@H](Cc3ccccc3Cl)NC(=O)c3ccc(C(=O)O)cc3)cc2)NC(=O)CC2(CCCC2)CC(=O)NCCCCCN1 [Compound 299],1000 to 10000 nM
16,O=C1CNC(=O)[C@@H](Cc2ccc(NC(=O)[C@H](Cc3ccccc3Cl)NC(=O)CN3CCCCC3)cc2)NC(=O)CC2(CCCC2)CC(=O)NCCCCCN1 [Compound 300],100 to 1000 nM
17,O=C1CNC(=O)[C@@H](Cc2ccc(NC(=O)[C@H](Cc3ccccc3Cl)NC(=O)CN3CCCC3)cc2)NC(=O)CC2(CCCC2)CC(=O)NCCCCCN1 [Compound 301],1000 to 10000 nM
18,CN(C)CC(=O)N[C@@H](Cc1ccccc1Cl)C(=O)Nc1ccc(C[C@H]2NC(=O)CC3(CCCC3)CC(=O)NCCCCCNC(=O)CNC2=O)cc1 [Compound 303],100 to 1000 nM
19,O=C1CNC(=O)[C@@H](Cc2ccc(NC(=O)[C@H](Cc3ccccc3Cl)NC(=O)CN3CCOCC3)cc2)NC(=O)CC2(CCCC2)CC(=O)NCCCCCN1 [Compound 304],100 to 1000 nM
20,CN1CCCCCNC(=O)CNC(=O)[C@@H](Cc2ccc(NC(=O)[C@H](Cc3ccccc3Cl)NC(=O)c3ccc(F)cc3)cc2)NC(=O)CC2(CCCC2)CC1=O [Compound 306],100 to 1000 nM
21,CN1CCCCCNC(=O)CC2(CCCC2)CC(=O)N[C@H](Cc2ccc(NC(=O)[C@H](Cc3ccccc3Cl)NC(=O)Cc3ccc(O)cc3)cc2)C(=O)NCC1=O [Compound 307],< 100 nM

row,SMILES,IC50
1,CN1CCCCCNC(=O)CC2(CCCC2)CC(=O)N[C@H](Cc2ccc(NC(=O)[C@H](Cc3ccccc3Cl)NC(=O)c3ccc(F)cc3)cc2)C(=O)NCC1=O [Compound 308],100 to 1000 nM
2,O=C1CC2(CCCC2)CC(=O)N[C@H](Cc2ccc(NC(=O)[C@H](Cc3ccccc3Cl)NC(=O)c3ccc(F)cc3)cc2)C(=O)N[C@@H](Cc2ccccc2)C(=O)NCCCCCN1 [Compound 309],100 to 1000 nM
3,O=C1CNC(=O)[C@@H](Cc2ccc(NC(=O)[C@H](NC(=O)Cc3ccccc3)C3CCCCC3)cc2)NC(=O)CC2(CCCC2)CC(=O)NCCCCCN1 [Compound 315],1000 to 10000 nM
4,O=C1CC2(CCCC2)CC(=O)N[C@H](Cc2ccc(NC(=O)[C@H](Cc3ccccc3Cl)NC(=O)Cc3ccccc3)cc2)C(=O)N[C@@H](Cc2ccccc2)C(=O)NCCCCCN1 [Compound 317],< 100 nM
5,O=C1CC2(CCCC2)CC(=O)N[C@H](Cc2ccc(NC(=O)[C@H](Cc3ccccc3Cl)NC(=O)Cc3ccccc3)cc2)C(=O)NCC(=O)OCCCCCN1 [Compound 318],100 to 1000 nM
6,O=C1CC2(CCCC2)CC(=O)N[C@H](Cc2ccc(NC(=O)[C@H](Cc3ccccc3Cl)NC(=O)Cc3ccccc3)cc2)C(=O)N[C@@H](CO)C(=O)NCCCCCN1 [Compound 319],100 to 1000 nM
7,CC(C)(C)OC[C@@H]1NC(=O)[C@@H](Cc2ccc(NC(=O)[C@H](Cc3ccccc3Cl)NC(=O)Cc3ccccc3)cc2)NC(=O)CC2(CCCC2)CC(=O)NCCCCCNC1=O [Compound 320],100 to 1000 nM
8,C[C@@H](O)[C@@H]1NC(=O)[C@@H](Cc2ccc(NC(=O)[C@H](Cc3ccccc3Cl)NC(=O)Cc3ccccc3)cc2)NC(=O)CC2(CCCC2)CC(=O)NCCCCCNC1=O [Compound 321],100 to 1000 nM
9,O=C1CNC(=O)[C@@H](Cc2ccc(NC(=O)[C@H](Cc3ccccc3Cl)NC(=O)Cc3ccccc3)cc2)NC(=O)CC2(CCCC2)CC(=O)NCCCCCOC(=O)CN1 [Compound 322],100 to 1000 nM
10,CN1CCNC(=O)CNC(=O)[C@@H](Cc2ccc(NC(=O)[C@H](Cc3ccccc3Cl)NC(=O)Cc3ccccc3)cc2)NC(=O)CC2(CCCC2)CC(=O)NCC1 [Compound 323],100 to 1000 nM
11,O=C1CNC(=O)[C@@H](Cc2ccc(NC(=O)[C@H](Cc3ccc(F)cc3Cl)NC(=O)c3ccc(F)cc3)cc2)NC(=O)CC2(CCCC2)CC(=O)NCCOCCN1 [Compound 324],100 to 1000 nM
12,O=C1CNC(=O)[C@@H](Cc2ccc(NC(=O)[C@H](Cc3ccccc3Cl)NC(=O)c3cc(F)c(F)c(F)c3)cc2)NC(=O)CC2(CCCC2)CC(=O)NCCCCCN1 [Compound 326],100 to 1000 nM
13,O=C1CNC(=O)[C@@H](Cc2ccc(NC(=O)[C@H](Cc3ccccc3Cl)NC(=O)c3cncnc3)cc2)NC(=O)CC2(CCCC2)CC(=O)NCCCCCN1 [Compound 327],< 100 nM
14,O=C1CNC(=O)[C@@H](Cc2ccc(NC(=O)[C@H](Cc3ccccc3Cl)NC(=O)c3ccc(F)c(F)c3F)cc2)NC(=O)CC2(CCCC2)CC(=O)NCCCCCN1 [Compound 328],100 to 1000 nM
15,O=C1CNC(=O)[C@@H](Cc2ccc(NC(=O)[C@H](Cc3ccccc3Cl)NC(=O)c3cc(F)c(F)cc3F)cc2)NC(=O)CC2(CCCC2)CC(=O)NCCCCCN1 [Compound 329],100 to 1000 nM
16,O=C1CNC(=O)[C@@H](Cc2ccc(NC(=O)[C@H](Cc3ccccc3Cl)NC(=O)c3ccccc3O)cc2)NC(=O)CC2(CCCC2)CC(=O)NCCCCCN1 [Compound 330],100 to 1000 nM
17,O=C1CC2(CCCC2)CC(=O)N[C@H](Cc2ccc(NC(=O)[C@@H](NC(=O)Cc3ccccc3)C3CCCCC3)cc2)C(=O)N[C@H](Cc2ccccc2)C(=O)NCCCCCN1 [Compound 331],100 to 1000 nM
18,O=C1CC2(CCCC2)CC(=O)N[C@H](Cc2ccc(NC(=O)[C@@H](NC(=O)Cc3ccccc3)C3CCCCC3)cc2)C(=O)NCCCCCCCCN1 [Compound 334],1000 to 10000 nM
19,O=C1CC2(CCCC2)CC(=O)N[C@H](Cc2ccc(NC(=O)[C@@H](NC(=O)Cc3ccc(CO)cc3)C3CCCCC3)cc2)C(=O)NCCCCCCCCN1 [Compound 337],100 to 1000 nM
20,CN1CCCCCNC(=O)CNC(=O)[C@@H](Cc2ccc(NC(=O)[C@@H](NC(=O)Cc3ccc(CO)cc3)C3CCCCC3)cc2)NC(=O)CC2(CCCC2)CC1=O [Compound 343],100 to 1000 nM
21,CN1CCCCCNC(=O)CC2(CCCC2)CC(=O)N[C@H](Cc2ccc(NC(=O)[C@@H](NC(=O)Cc3ccc(CO)cc3)C3CCCCC3)cc2)C(=O)NCC1=O [Compound 351],100 to 1000 nM
